Source: patent US6680344B1, “Method of treating hair loss using diphenylmethane derivatives” (The University of Texas Southwestern Medical Center, priority 1999, dated 2004)

System: heart/body weight ratio of male Sprague Dawley rats
Assay: Cardiotoxicity assay (heart-to-body weight ratio)
Assay type: in vivo, rat
Details: 250 μg/kg subcutaneously once daily for 28 days, cardiac-sparing where C is less than 1.3
Excerpt: The cardiotoxicity assay measures the potential of a test compound to adversely affect the cardiovascular system. As thyroid hormone (T3) damages the cardiovascular system, the heart enlarges. See, e.g., Gomberg-Maitland et al., “Thyroid hormone and Cardiovascular Disease”, American Heart Journal, Vol. 135(2), pp. 187-196 (1998); Klein and Ojamaa, “Thyroid Hormone and the Cardiovascular System”, Current Opinion in Endocrinology and Diabetes, Vol. 4, pp.341-346 (1997); and Klemperer et al., “Thyroid Hormone Therapy and Cardiovascular Disease”, Progress in Cardiovascular Diseases, Vol. 37 (4), pp. 329-336 (1996). This increases the weight of the heart relative to whole body weight. The cardiotoxicity assay herein below is used to test compounds for potentially adverse cardiac effects by measuring their effect on the heart-to-body weight ratio.
Two groups each of six male Sprague Dawley rats (Harlan Sprague Dawley, Inc., Indianapolis, Ind.) (each weighing from approximately 220 grams to 235 grams) are utilized. The first group is a vehicle control group and the second group is a test compound group. The length of the assay is 30 days, with treatment of vehicle or test compound in vehicle daily for 28 of those days as described below.
Prior to initiation of the assay, each rat is allowed to acclimate to standard environmental conditions for 5 days. […]

N[C@@H](Cc1cc(I)c(Oc2cc(I)c(O)c(I)c2)c(I)c1)C(=O)O [T4, thyroxine]
cardiac-sparing classification (index C = RT/RV, heart/body ratio of test compound group over vehicle control group): not cardiac-sparing
